Measurements reported in US6534524B1, “Indazole compounds and pharmaceutical compositions for inhibiting protein kinases, and methods for their use” (Agouron Pharmaceuticals, Inc., priority 1999, dated 2003).

Tested on: human umbilical vein endothelial cells (HUVEC)
Assay: HUVEC proliferation assay (VEGF-stimulated, MTT);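 as to % inhibition of the proliferation of HUVEC: relative to VEGF-stimulated control minus starvation-medium baseline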
Type: cell-based
Conditions: for % inhibition of the proliferation of HUVEC / % inhibition: crude reaction mixtures; for % inhibition: Library III, HUVEC proliferation, nominal concentration of 0.5 nM; for IC50: Homo sapiens, HUVEC, + albumin, read-out: HUVEC + albumin IC50
Protocol: HUVEC Proliferation Assay
This assay determines the ability of a test compound to inhibit the growth factor-stimulated proliferation of human umbilical vein endothelial cells (“HUVEC”). HUVEC cells (passage 3-4, Clonetics, Corp.) were thawed into EGM2 culture medium (Clonetics Corp) in T75 flasks. Fresh EGM2 medium was added to the flasks 24 hours later. Four or five days later, cells were exposed to another culture medium (F12K medium supplemented with 10% fetal bovine serum (FBS), 60 μg/mL endothelial cell growth supplement (ECGS), and 0.1 mg/mL heparin). Exponentially-growing HUVEC cells were used in experiments thereafter. Ten to twelve thousand HUVEC cells were plated in 96-well dishes in 100 μl of rich, culture medium (described above). The cells were allowed to attach for 24 hours in this medium. The medium was then removed by aspiration and 105 μl of starvation media (F12K+1% FBS) was added to each well. After 24 hours, 15 μl of test agent dissolved in 1% DMSO in starvation medium or this vehicle alone was added into each treatment well; the final DMSO concentration was 0.1%. One hour later, 30 μl of VEGF (30 ng/mL) in starvation media was added to all wells except those containing untreated controls; the final VEGF concentration was 6 ng/mL. Cellular proliferation was quantified 72 hours later by MTT dye reduction, at which time cells were exposed for 4 hours MTT (Promega Corp.).
For screening compound library plates, one or two concentrations (one well per concentration) were employed, and the % inhibition was calculated by the following formula:
% inhibition=(control−test)÷(control−starvation)
% inhibition=(control-treated)/(control-starvation)×100

[1] = Library I, Y = CO, nominal concentration of 10 nM
[2] = Library I, Y = NH, nominal concentration of 10 nM
[3] = Library I, Y = O, nominal concentration of 10 nM
[4] = Library II, Y=S, 0.5 mM (column head; text: nominal 0.5 nM)
[5] = Library II, Y=S, 2 mM (column head; text: nominal 2 nM)

SMILES | % inhibition of the proliferation of HUVEC [4] | % inhibition of the proliferation of HUVEC [5] | % inhibition | other results
O=C(Nc1ccncc1)c1ccc2c(-c3nc4ccccc4[nH]3)n[nH]c2c1 | – | – | – | % inhibition of the proliferation of HUVEC [1]: 33%; % inhibition of the proliferation of HUVEC [2]: 13%; % inhibition of the proliferation of HUVEC [3]: 42%
CC1(C)CC(NC(=O)c2ccccc2Sc2ccc3c(/C=C/c4ccccn4)n[nH]c3c2)CC(C)(C)N1 | 35% | 10% | – | –
CC(NC(=O)c1ccccc1Sc1ccc2c(/C=C/c3ccccn3)n[nH]c2c1)c1ccc(F)cc1 (centres unmarked) | – | – | 2% | –
Cc1ccccc1CNC(=O)c1ccccc1Sc1ccc2c(/C=C/c3ccccn3)n[nH]c2c1 | 24% | 99% | – | –
COc1cccc(NC(=O)c2ccccc2Sc2ccc3c(/C=C/c4ccccn4)n[nH]c3c2)c1 | – | – | 11% | –
CCOC(=O)C1CCCN(C(=O)c2ccc3c(-c4nc5ccccc5[nH]4)n[nH]c3c2)C1 (centres unmarked) | – | – | – | % inhibition of the proliferation of HUVEC [1]: 64%; % inhibition of the proliferation of HUVEC [2]: −8%; % inhibition of the proliferation of HUVEC [3]: 83%
CCCCN(CCCC)CCNC(=O)c1ccccc1Sc1ccc2c(/C=C/c3ccccn3)n[nH]c2c1 | – | – | 1% | –
O=C(N/N=C/c1ccccn1)c1ccccc1Sc1ccc2c(/C=C/c3ccccn3)n[nH]c2c1 [Example 36(b)] | – | – | – | IC50: > 30 nM
O=C(NC(CO)CO)c1ccccc1Sc1ccc2c(/C=C/c3ccccn3)n[nH]c2c1 | 48% | 8% | – | –
O=C(Nc1ccc2cccc(O)c2n1)c1ccccc1Sc1ccc2c(/C=C/c3ccccn3)n[nH]c2c1 | – | – | 33% | –
CC(C)(C)C(CO)NC(=O)c1ccccc1Sc1ccc2c(C=Cc3ccccn3)n[nH]c2c1 (centres unmarked) | – | – | −7% | –
O=C(Nc1ncc([N+](=O)[O-])s1)c1ccccc1Sc1ccc2c(/C=C/c3ccccn3)n[nH]c2c1 | – | – | −15% | –
O=C(NN1CCCC1)c1ccccc1Sc1ccc2c(/C=C/c3ccccn3)n[nH]c2c1 | 17% | 23% | – | –
C=CCC(NC(=O)c1ccc2c(-c3nc4ccccc4[nH]3)n[nH]c2c1)c1ccccn1 (centres unmarked) [drawing 609] | 37% | 16% | – | –
O=C(NNC(=O)c1ccccc1Sc1ccc2c(/C=C/c3ccccn3)n[nH]c2c1)c1ccc[nH]1 | 60% | 99% | – | –
CCOc1ccc(NC(=O)c2ccccc2Sc2ccc3c(/C=C/c4ccccn4)n[nH]c3c2)cc1 | – | – | 16% | –
COc1cccc(CCNC(=O)c2ccccc2Sc2ccc3c(/C=C/c4ccccn4)n[nH]c3c2)c1 | – | – | 8% | –
Cc1noc(NC(=O)c2ccccc2Sc2ccc3c(/C=C/c4ccccn4)n[nH]c3c2)c1C | 15% | 36% | – | –
Cc1ccc2nc(NC(=O)c3ccccc3Sc3ccc4c(/C=C/c5ccccn5)n[nH]c4c3)sc2c1 | – | – | −9% | –
O=C(Nc1ncnc2[nH]cnc12)c1ccccc1Sc1ccc2c(/C=C/c3ccccn3)n[nH]c2c1 | – | – | 18% | –

SMILES | % inhibition of the proliferation of HUVEC [4] | % inhibition of the proliferation of HUVEC [5] | % inhibition | other results
O=C(NCCc1ccncc1)c1ccccc1Sc1ccc2c(/C=C/c3ccccn3)n[nH]c2c1 | 18% | 22% | – | –
O=C(NCCN1CCCCC1)c1ccccc1Sc1ccc2c(/C=C/c3ccccn3)n[nH]c2c1 | 5% | 19% | – | –
CC(C)C(NC(=O)c1ccccc1Sc1ccc2c(/C=C/c3ccccn3)n[nH]c2c1)C(C)C | 18% | −2% | – | –
CN(NC(=O)c1ccccc1Sc1ccc2c(/C=C/c3ccccn3)n[nH]c2c1)c1ccccc1 | 16% | 37% | – | –
COc1ccc(Cl)cc1NC(=O)c1ccccc1Sc1ccc2c(/C=C/c3ccccn3)n[nH]c2c1 | – | – | −4% | –
CC(C)(C)CNC(=O)c1ccccc1Sc1ccc2c(/C=C/c3ccccn3)n[nH]c2c1 [drawing 728] | 19% | 24% | – | –
Cc1cnc(CNC(=O)c2ccccc2Sc2ccc3c(/C=C/c4ccccn4)n[nH]c3c2)cn1 | – | – | 6% | –
O=C(Nc1ccc(O)cc1Cl)c1ccccc1Sc1ccc2c(/C=C/c3ccccn3)n[nH]c2c1 | – | – | 7% | –
Cc1oc(NC(=O)c2ccccc2Sc2ccc3c(/C=C/c4ccccn4)n[nH]c3c2)c(C#N)c1C | – | – | 13% | –
O=C(Nc1cc(Cl)nc(Cl)c1)c1ccccc1Sc1ccc2c(/C=C/c3ccccn3)n[nH]c2c1 | – | – | 0% | –
COCCCNC(=O)c1ccccc1Sc1ccc2c(/C=C/c3ccccn3)n[nH]c2c1 | 26% | 31% | – | –
O=C(Nc1ccccc1)c1ccccc1Sc1ccc2c(/C=C/c3ccccn3)n[nH]c2c1 [drawing 1131] | – | – | 11% | –
O=C(Nc1ccccn1)c1ccccc1Sc1ccc2c(/C=C/c3ccccn3)n[nH]c2c1 | – | – | −31% | –
CC(CNC(=O)c1ccccc1Sc1ccc2c(/C=C/c3ccccn3)n[nH]c2c1)N(C)C (centres unmarked) | −9% | 1% | – | –
O=C(NCCS(=O)(=O)O)c1ccccc1Sc1ccc2c(/C=C/c3ccccn3)n[nH]c2c1 | 16% | 21% | – | –
O=C(Nc1ccncc1)c1ccccc1Sc1ccc2c(/C=C/c3ccccn3)n[nH]c2c1 | – | – | 6% | –
CSCCC(CO)NC(=O)c1ccccc1Sc1ccc2c(C=Cc3ccccn3)n[nH]c2c1 (centres unmarked) | – | – | −11% | –
NC(=O)c1ccccc1Sc1ccc2c(/C=C/c3ccccn3)n[nH]c2c1 [Example 35(d), 6-(2-Carbamoylphenylsulfanyl)-3-E-[2-(pyridin-2-yl)ethenyl]-1H-indazole] | – | – | – | IC50: > 100 nM
O=C(Nc1ccccc1-n1cccc1)c1ccccc1Sc1ccc2c(/C=C/c3ccccn3)n[nH]c2c1 | – | – | −7% | –
CCOC(CCCNC(=O)c1ccccc1Sc1ccc2c(/C=C/c3ccccn3)n[nH]c2c1)OCC | – | – | −11% | –

SMILES | % inhibition of the proliferation of HUVEC [4] | % inhibition of the proliferation of HUVEC [5] | % inhibition | other results
N#Cc1[nH]cnc1NC(=O)c1ccccc1Sc1ccc2c(/C=C/c3ccccn3)n[nH]c2c1 | – | – | −13% | –
O=C(NCCc1ccc(F)cc1)c1ccccc1Sc1ccc2c(/C=C/c3ccccn3)n[nH]c2c1 | – | – | 3% | –
O=C(Nc1ccc2ncccc2c1)c1ccccc1Sc1ccc2c(/C=C/c3ccccn3)n[nH]c2c1 | – | – | 1% | –
O=C(NCCCN1CCOCC1)c1ccccc1Sc1ccc2c(/C=C/c3ccccn3)n[nH]c2c1 | 5% | 14% | – | –
NC(=O)c1ccccc1Sc1ccc2c(/C=C/c3ccccn3)n[nH]c2c1 [H-X1] | 9% | – | – | –
CC(C)c1ccccc1NC(=O)c1ccccc1Sc1ccc2c(/C=C/c3ccccn3)n[nH]c2c1 | – | – | −30% | –
Cc1cc(NC(=O)c2ccccc2Sc2ccc3c(/C=C/c4ccccn4)n[nH]c3c2)n[nH]1 | – | – | 11% | –
CCNC(=O)c1ccccc1Sc1ccc2c(/C=C/c3ccccn3)n[nH]c2c1 [drawing 696] | 16% | 17% | – | –
O=C(NCc1cccc(Cl)c1)c1ccccc1Sc1ccc2c(/C=C/c3ccccn3)n[nH]c2c1 | – | – | 24% | –
CCC(C)c1ccc(NC(=O)c2ccccc2Sc2ccc3c(/C=C/c4ccccn4)n[nH]c3c2)cc1 (centres unmarked) | – | – | 81% | –
CCCCN(CC)CCNC(=O)c1ccccc1Sc1ccc2c(/C=C/c3ccccn3)n[nH]c2c1 | 2% | 6% | – | –
CC1CN(C(=O)c2ccc3c(-c4nc5ccccc5[nH]4)n[nH]c3c2)CC(C)O1 (centres unmarked) | – | – | – | % inhibition of the proliferation of HUVEC [1]: 21%; % inhibition of the proliferation of HUVEC [2]: 7%; % inhibition of the proliferation of HUVEC [3]: 40%
O=C(Nc1nccs1)c1ccccc1Sc1ccc2c(/C=C/c3ccccn3)n[nH]c2c1 [drawing 740] | 33% | 94% | – | –
CC(C)(C)c1csc(NC(=O)c2ccccc2Sc2ccc3c(/C=C/c4ccccn4)n[nH]c3c2)n1 | – | – | −6% | –
O=C(NCc1cccc(F)c1)c1ccccc1Sc1ccc2c(/C=C/c3ccccn3)n[nH]c2c1 [drawing 797] | 81% | 95% | – | –
O=C(NC1CCC(O)CC1)c1ccccc1Sc1ccc2c(C=Cc3ccccn3)n[nH]c2c1 (centres unmarked) | 23% | 6% | – | –
COc1ccc(NC(=O)c2ccc3c(-c4nc5ccccc5[nH]4)n[nH]c3c2)cn1 | – | – | – | % inhibition of the proliferation of HUVEC [1]: 81%; % inhibition of the proliferation of HUVEC [2]: 11%; % inhibition of the proliferation of HUVEC [3]: 64%
O=C(NCCCN1CCCCCC1)c1ccccc1Sc1ccc2c(/C=C/c3ccccn3)n[nH]c2c1 | 25% | −5% | – | –
O=C(NC[C@H](O)c1ccccc1)c1ccccc1Sc1ccc2c(/C=C/c3ccccn3)n[nH]c2c1 | – | – | −34% | –
